Results published in article PMC8657793, “Synthesis, In Vitro and In Silico Anticancer Activity of New 4-Methylbenzamide Derivatives Containing 2,6-Substituted Purines as Potential Protein Kinases Inhibitors” (International Journal of Molecular Sciences, 2021).

Tested on: OKP-GS cells
Assay: Annexin-V/propidium iodide apoptosis assay by flow cytometry
Format: cell-based, human
Details: for Living cells: Figure 3; for Level of apoptosis compared with sorafnib / Number of necrotic cells: 72 h; for Number of necrotic cells: 5, 10 and 20 μM
Description: Apoptosis is a versatile and extremely effective pathway for cell death. This phenomenon can be caused by internal signals, such as genotoxic stress, or external signals, such as the binding of ligands to death receptors on the cell surface. The induction of apoptosis was studied by measuring the translocation of phosphatidylserine from the cytoplasmic to the extracellular side of the plasma membrane. OKP-GS cells were treated with compound 7 or 10 at 5, 10 and 20 μM for 72 h, after which annexin-V/propidium iodide (PI) binding was measured by flow cytometry (Figure 2).
Tumor cells were plated on a 6-well plate at a density of 100.000 per well for OKP-GS. Test compounds 7 and 10 were added at concentrations of 5, 10, and 20 μM for 72 h. Then, the cells were washed from the culture medium by centrifugation at 1000 rpm for 5 min, washed again with phosphate buffer, then the Annexin V-FITC and PI dyes from the Annexin 5A-FITC Kit (Beckman Coulter, Brea, CA, USA) were added, according to the manufacturer’s instructions. Colored suspensions were incubated for 15 min in the dark on ice and measured on a Cytomics FC500 Beckman Coulter flow cytometer (channels FL1 for Annexin V-FITC and FL4 for PI). Data were analyzed with Kaluza 2.0 Software (Beckman Coulter, Brea, CA, USA).

| Compound | Living cells (5 μM) | Living cells (10 μM) | Level of apoptosis compared with sorafnib (20 μM) | Living cells (20 μM) | Number of necrotic cells [%] |
| --- | --- | --- | --- | --- | --- |
| O=C(Nc1cccc(C(F)(F)F)c1)c1ccc(Cn2cnc3c(Cl)nc(Cl)nc32)cc1 [Compound 7, 4-((2,6-Dichloro-9H-purin-9-yl)methyl)-N-(3-(trifluoromethyl)phenyl)benzamide] | 83,07 | 56,68 | more than two-fold higher level of apoptosis | 23,92 | ≤ 7.3 |
| Cc1cn(-c2cc(NC(=O)c3ccc(Cn4cnc5c(Cl)nc(Cl)nc54)cc3)cc(C(F)(F)F)c2)cn1 [Compound 10, 4-((2,6-Dichloro-9H-purin-9-yl)methyl)-N-(3-(4-methyl-1H-imidazol-1-yl)-5-(trifluoromethyl)-phenyl)benzamide] | 70,22 | 44,89 | more than two-fold higher level of apoptosis | 21,99 | ≤ 7.3 |
